Data taken from publication PMC12207366, “Protonated Glutamate and Aspartate Side Chains Can Recognize Phosphodiester Groups via Strong and Short Hydrogen Bonds in Biomacromolecular Complexes” (Angewandte Chemie (International Ed. in English), 2025).

Columns and labels:
[1] = target: T1, PilF159-302 Q190E (Thermus thermophilus, UniProt Q72H73, Q190E); assay: ITC c-di-GMP binding to Q190E mutant, pH series; conditions: Tris, 20 °C
T1 sequence (Q72H73 159-302 Q190E): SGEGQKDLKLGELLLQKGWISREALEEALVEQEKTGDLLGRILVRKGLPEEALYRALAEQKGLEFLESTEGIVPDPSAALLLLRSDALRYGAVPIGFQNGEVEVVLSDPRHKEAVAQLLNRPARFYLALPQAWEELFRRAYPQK
Source text: (§1) To characterize c-di-GMP binding by PilF159-302, the Q190E and Q218E constructs via isothermal titration calorimetry (ITC) and X-ray crystallography unlabeled c-di-GMP was synthesized using a constitutively active mutant of a diguanylate cyclase from the thermophilic bacterium Thermogata maritima ^[4^4,4^5]. For NMR experiments ^13C,^15N labelled c-di-GMP was synthesized identically using ^13C,^15N labelled GTP as a substrate.
(§2) c-di-GMP binding capabilities of PilF159-302, its mutant constructs PilF159-302 Q190E and PilF159-302 Q218E at varying pH-values were investigated by isothermal titration calorimetry (ITC) experiments in triplicate. All measurements were conducted at 20 °C using a MicroCal ITC200 (Malvern Panalytical, UK). For PilF159-302 Q190E and PilF159-302 Q218E ITC-measurements were conducted in a pH range from pH 8.5 – 4.0 with the buffering agent adjusted to the respective pH-range. For the pH-range 8.5 – 7.5 a sample buffer of 50 mM Tris, 200 mM NaCl and 1 mM β-Me was used. For pH values 7.0 – 6.0 a sample buffer of 50 mM BisTris, 200 mM NaCl, 1 mM β-Me and for pH 5.5 – 4.0 a sample buffer of 50 mM NaAc, 200 mM NaCl, 1 mM β-Me was used. For reference PilF159-302 was titrated with c-di-GMP at pH 8.5 in 50 mM Tris pH 8.5, 200 mM NaCl, 1 mM β-Me and at pH 4.0 in 50 mM NaAc pH 4.0, 200 mM NaCl, 1 mM β-Me. In order to test whether the buffer reagents have an influence on the measured thermodynamic parameters, cross measurements were performed in the region of the pH transitions. To this end, additional measurements with BisTris at pH 7.5 and 5.5, with Tris at pH 7.0 and with NaAc at pH 6.0 were carried out as singlets. The buffer agents had no influence on measured KD-values and resulted only in small changes of the ΔH values. All protein samples were dialyzed two times against 500 ml of the respective sample buffer (1 L in total) at 4 °C for at least 16 hours per step using a dialysis chamber with a nominal 3.5 kDa molecular weight cutoff (ZelluTrans, ROTH). To prepare the ITC-measurements protein and c-di-GMP sample were adjusted to the respective concentration using the dialysis buffer. Protein and c-di-GMP concentration ranged from 20 to 50 µM (protein) and 200 to 500 µM (c-di-GMP) depending on the c-di-GMP binding capabilities at the different pH-values to optimize precision of the measurements. For pH 8.5 – 7.0 a protein concentration of 50 µM with 500 µM c-di-GMP was used. For pH 6.5 – 5.0 a protein concentration of 30 µM with 300 µM c-di-GMP and for pH 4.5 – 4.0 a protein concentration of 20 µM with 200 µM c-di-GMP was used. The following protocol was utilized for each measurement. To 270 µl protein a total of 40 µl c-di-GMP was titrated in 21 injections with a duration of 4 s in intervals of 180 s with a stirring speed of 750 rpm. The first injection of 0.2 µl c-di-GMP with a duration of 0.4 s was carried out after an initial delay of 120 s, which was followed by 20 injections of 2 µl each with a duration of 4 s. During the measurement, the feedback mode was set to high and the reference power to 11 µcal s^-1. All thermograms were processed using Origin 7.0 (OriginLab) using the one-site binding model.

[2] = target: T2, PilF159-302 Q218E (Thermus thermophilus, UniProt Q72H73, Q218E); assay: ITC c-di-GMP binding to Q218E mutant, pH series; conditions: 20 °C
T2 sequence (Q72H73 159-302 Q218E): T1 sequence (Q72H73 159-302 Q190E)
Source text: as §1, §2

[3] = target: T3, PilF159-302 WT (Thermus thermophilus, UniProt Q72H73); parameters: method as in PMID 39615687; conditions: GSPII-B (PilF159-302) four-helix bundle; cited from earlier work
T3 sequence (Q72H73 159-302): T1 sequence (Q72H73 159-302 Q190E)

[4] = target: T1, PilF159-302 Q190E; parameters: method as in PMID 39615687; conditions: in vitro, pH 7.5; cited from earlier work
[5] = target: T2, PilF159-302 Q218E; parameters: method as in PMID 39615687; conditions: in vitro, pH 7.5; cited from earlier work
[6] = system: GSPII-B domain Q190E Q218E double mutant; parameters: method as in PMID 39615687; conditions: in vitro, pH 7.5; cited from earlier work
[7] = system: PilF159-221; parameters: method as in PMID 39615687; conditions: cited from earlier work

With `Nc1nc2c(ncn2C2OC3COP(=O)(O)OC4C(COP(=O)(O)OC3C2O)OC(n2cnc3c(=O)[nH]c(N)nc32)C4O)c(=O)[nH]1` (stereo not shown) [c-di-GMP] the ΔG ([1]; pH 7.5) was -8.44 ± 0.02 kcal/mol, the ΔH ([1]; pH 7.5) was -3.81 ± 0.20 kcal/mol and the “-TΔS” value ([1]; pH 8.0) was -3.37 ± 0.65 kcal/mol. For the same compound, the Kd ([1]; pH 8.0) was 729 ± 44 nM, the N ([1]; pH 8.0) was 0.84 ± 0.17 and the ΔG ([1]; pH 8.0) was -8.23 ± 0.04 kcal/mol. The ΔH ([1]; pH 8.0) was -4.87 ± 0.68 kcal/mol, the “-TΔS” value ([1]; pH 8.5) was -2.52 ± 0.20 kcal/mol and the Kd ([1]; pH 8.5) was 798 ± 39 nM. The N ([1]; pH 8.5) was 0.86 ± 0.09, the ΔG ([1]; pH 8.5) was -8.18 ± 0.03 kcal/mol and the ΔH ([1]; pH 8.5) was -5.66 ± 0.17 kcal/mol. The “-TΔS” value ([2]; Bis-Tris, pH 6.0) was -2.23 ± 0.80 kcal/mol, the Kd ([2]; Bis-Tris, pH 6.0) was 64 ± 7 nM and the N ([2]; Bis-Tris, pH 6.0) was 1.03 ± 0.23. For the same compound, the ΔG ([2]; Bis-Tris, pH 6.0) was -9.64 ± 0.06 kcal/mol, the ΔH ([2]; Bis-Tris, pH 6.0) was -7.42 ± 0.75 kcal/mol and the “-TΔS” value ([2]; Bis-Tris, pH 6.5) was -1.48 ± 0.23 kcal/mol. The Kd ([2]; Bis-Tris, pH 6.5) was 110 ± 3 nM, the N ([2]; Bis-Tris, pH 6.5) was 1.00 ± 0.27 and the ΔG ([2]; Bis-Tris, pH 6.5) was -9.33 ± 0.02 kcal/mol. The ΔH ([2]; Bis-Tris, pH 6.5) was -7.86 ± 0.22 kcal/mol, the “-TΔS” value ([2]; Bis-Tris, pH 7.0) was -2.05 ± 0.07 kcal/mol and the Kd ([2]; Bis-Tris, pH 7.0) was 249 ± 7 nM. For the same compound, the N ([2]; Bis-Tris, pH 7.0) was 0.90 ± 0.16, the ΔG ([2]; Bis-Tris, pH 7.0) was -8.85 ± 0.02 kcal/mol and the ΔH ([2]; Bis-Tris, pH 7.0) was -6.80 ± 0.08 kcal/mol. For the same compound, the Kd ([2]; Na-Acetate, pH 4.0) was 23 ± 10 nM, the N ([2]; Na-Acetate, pH 4.0) was 0.84 ± 0.07 and the “-TΔS” value ([2]; Na-Acetate, pH 4.5) was -2.56 ± 0.49 kcal/mol. For the same compound, the Kd ([2]; Na-Acetate, pH 4.5) was 61 ± 7 nM, the N ([2]; Na-Acetate, pH 4.5) was 0.90 ± 0.04 and the ΔG ([2]; Na-Acetate, pH 4.5) was -9.68 ± 0.07 kcal/mol. The ΔH ([2]; Na-Acetate, pH 4.5) was -7.12 ± 0.44 kcal/mol, the “-TΔS” value ([2]; Na-Acetate, pH 5.0) was -1.47 ± 0.47 kcal/mol and the Kd ([2]; Na-Acetate, pH 5.0) was 36 ± 8 nM. It also gave an N ([2]; Na-Acetate, pH 5.0) of 1.31 ± 0.09, a ΔG ([2]; Na-Acetate, pH 5.0) of -9.99 ± 0.13 kcal/mol and a ΔH ([2]; Na-Acetate, pH 5.0) of -8.53 ± 0.44 kcal/mol. For the same compound, the “-TΔS” value ([2]; Na-Acetate, pH 5.5) was -0.40 ± 1.00 kcal/mol, the Kd ([2]; Na-Acetate, pH 5.5) was 28 ± 10 nM and the N ([2]; Na-Acetate, pH 5.5) was 0.97 ± 0.09. For the same compound, the ΔG ([2]; Na-Acetate, pH 5.5) was -10.17 ± 0.20 kcal/mol, the ΔH ([2]; Na-Acetate, pH 5.5) was -9.78 ± 0.92 kcal/mol and the “-TΔS” value ([2]; Tris, pH 7.5) was -3.22 ± 0.17 kcal/mol. For the same compound, the Kd ([2]; Tris, pH 7.5) was 342 ± 26 nM, the N ([2]; Tris, pH 7.5) was 0.92 ± 0.07 and the ΔG ([2]; Tris, pH 7.5) was -8.67 ± 0.04 kcal/mol. The ΔH ([2]; Tris, pH 7.5) was -5.45 ± 0.13 kcal/mol, the “-TΔS” value ([2]; Tris, pH 8.0) was 0.99 ± 0.27 kcal/mol and the Kd ([2]; Tris, pH 8.0) was 432 ± 25 nM. For the same compound, the N ([2]; Tris, pH 8.0) was 1.12 ± 0.05, the ΔG ([2]; Tris, pH 8.0) was -8.53 ± 0.03 kcal/mol and the ΔH ([2]; Tris, pH 8.0) was -9.52 ± 0.31 kcal/mol. For the same compound, the “-TΔS” value ([2]; Tris, pH 8.5) was 2.15 ± 0.18 kcal/mol, the Kd ([2]; Tris, pH 8.5) was 463 ± 13 nM and the N ([2]; Tris, pH 8.5) was 0.73 ± 0.14. For the same compound, the ΔG ([2]; Tris, pH 8.5) was -8.49 ± 0.02 kcal/mol, the ΔH ([2]; Tris, pH 8.5) was -10.65 ± 0.16 kcal/mol and the Kd [3] was about 6 nM. For the same compound, the “c-di-GMP binding affinity relative to WT” value [4] was “significantly reduced affinity”, the “c-di-GMP binding affinity relative to WT” value [5] was “significantly reduced affinity” and the c-di-GMP binding [6] was “did not bind”. The “c-di-GMP binding affinity of subdomain relative to full-length domain” value [7] was “comparable”.
